Data reported in patent publication US8569292B2, “Cyclic inhibitors of 11β-hydroxysteroid dehydrogenase 1” (Vitae Pharmaceuticals, Inc., priority 2008, dated 2013).

Columns and labels:
11β-HSD1 [1] = target: T1, 11β-HSD1 (Homo sapiens, UniProt P28845); test: Biological Test Example 4: microsomal 11β-HSD1 in the presence of 50% human plasma; details: for Shift: IC50 in Test Example 4 divided by IC50 in Test Example 1
11β-HSD1 [2] = target: T1, 11β-HSD1; test: biochemical; details: for inhibition at 0.1 µM: read-out: Average % inhibition at 100 nM
CYP2C9 = target: T2, CYP2C9 (Homo sapiens, UniProt P11712); test: Biological Test Example 9: CYP2C9 inhibition (Invitrogen kit, fluorogenic OOMR); type: in vitro ADME
T2 construct: purchased Invitrogen 2859; host or cells: insect cells infected with baculovirus (microsomes)
T2 sequence (P11712 whole entry): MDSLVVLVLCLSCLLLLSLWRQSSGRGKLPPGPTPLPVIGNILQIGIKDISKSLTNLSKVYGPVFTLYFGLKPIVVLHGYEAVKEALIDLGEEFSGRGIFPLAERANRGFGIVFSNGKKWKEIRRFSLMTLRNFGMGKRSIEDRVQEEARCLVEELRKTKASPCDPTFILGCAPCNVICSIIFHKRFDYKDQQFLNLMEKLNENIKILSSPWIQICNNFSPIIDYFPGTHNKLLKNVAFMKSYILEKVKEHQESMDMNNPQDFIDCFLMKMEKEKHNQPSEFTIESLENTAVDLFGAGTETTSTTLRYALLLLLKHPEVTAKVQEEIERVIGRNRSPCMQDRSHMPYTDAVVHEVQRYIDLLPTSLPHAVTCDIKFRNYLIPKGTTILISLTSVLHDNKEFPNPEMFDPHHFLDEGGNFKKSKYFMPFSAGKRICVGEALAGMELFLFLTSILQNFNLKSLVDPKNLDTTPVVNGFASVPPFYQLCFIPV

[3] = Biological Test Example 1 IC50 (nM)
[4] = IC50 Range, Biological Test Example 1

T1 sequence (P28845 whole entry): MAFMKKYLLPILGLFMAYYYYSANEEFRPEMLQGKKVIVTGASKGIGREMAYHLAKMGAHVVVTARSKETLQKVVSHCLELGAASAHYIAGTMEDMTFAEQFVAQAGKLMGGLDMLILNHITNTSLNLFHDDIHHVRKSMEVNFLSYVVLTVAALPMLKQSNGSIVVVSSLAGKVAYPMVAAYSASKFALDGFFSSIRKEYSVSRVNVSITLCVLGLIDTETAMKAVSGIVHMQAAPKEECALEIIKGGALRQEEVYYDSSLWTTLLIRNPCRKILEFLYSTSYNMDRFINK

SMILES | IC50 (11β-HSD1 [1]) | Shift (11β-HSD1 [1]) | IC50 (11β-HSD1 [2]; [3]) | IC50 (11β-HSD1 [2]; [4]) | inhibition at 0.1 µM (11β-HSD1 [2]) | IC50 (CYP2C9)
C[C@@H](c1ccc(-c2cccnn2)cc1)N1CC[C@](CCCO)(c2ccc(F)cc2)OC1=O [EXAMPLE 132, (R)-6-(4-fluorophenyl)-6-(3-hydroxypropyl)-3-((S)-1-(4-(pyridazin-3-yl)phenyl)ethyl)-1,3-oxazinan-2-one] | 18.9 nM | 3.1 | 6.1 nM | < 100 nM | 95.2% | 18300 nM
Cc1ccc(-c2ccc([C@H](C)N3CC[C@](CCCO)(c4ccc(F)cc4)OC3=O)cc2)c(C)n1 [EXAMPLE 141, (R)-3-((S)-1-(4-(2,6-dimethylpyridin-3-yl)phenyl)ethyl)-6-(4-fluorophenyl)-6-(3-hydroxypropyl)-1,3-oxazinan-2-one] | 6.6 nM | 6.3 | 1 nM | < 100 nM | 102% | > 30000 nM
Cc1cc(-c2ccc([C@H](C)N3CC[C@@](C)(c4ccc(F)cc4)OC3=O)cc2)ccn1 (single isomer, unassigned) [EXAMPLE 107.1] | 86.4 nM | 26.9 | 3.2 nM | < 100 nM | 95.5% | 2700 nM
C[C@@H](c1ccc(-c2ccccn2)cc1)N1CC[C@](CCCO)(c2ccc(F)cc2)OC1=O [EXAMPLE 59, (R)-6-(4-fluorophenyl)-6-(3-hydroxypropyl)-3-((S)-1-(4-(pyridin-2-yl)phenyl)ethyl)-1,3-oxazinan-2-one] | 5.1 nM | 9.9 | 0.5 nM | < 100 nM | 100% | 10900 nM
C[C@@H](c1ccc(-c2ccccn2)cc1)N1CC[C@](CC(C)(C)O)(c2ccc(F)cc2)OC1=O [EXAMPLE 58, (S)-6-(4-fluorophenyl)-6-(2-hydroxy-2-methylpropyl)-3-((S)-1-(4-(pyridin-2-yl)phenyl)ethyl)-1,3-oxazinan-2-one] | 7.2 nM | – | 0.8 nM | < 100 nM | 97.4% | 16900 nM
Cc1cc(-c2ccc([C@H](C)N3CC[C@](CC(C)(C)O)(c4ccc(F)cc4)OC3=O)cc2)cc(C)[n+]1[O-] [EXAMPLE 123, 4-(4-((S)-1-((S)-6-(4-fluorophenyl)-6-(2-hydroxy-2-methylpropyl)-2-oxo-1,3-oxazinan-3-yl)ethyl)phenyl)-2,6-dimethylpyridine 1-oxide] | 11.1 nM | 1.7 | 6.6 nM | < 100 nM | 93.6% | 9100 nM
C[C@@H](c1ccc(-c2ccncn2)cc1)N1CC[C@](CCCO)(c2ccc(F)cc2)OC1=O [EXAMPLE 128, (R)-6-(4-fluorophenyl)-6-(3-hydroxypropyl)-3-((S)-1-(4-(pyrimidin-4-yl)phenyl)ethyl)-1,3-oxazinan-2-one] | 8.5 nM | – | 1.1 nM | < 100 nM | 96.5% | 3300 nM
C=CC[C@]1(c2ccc(F)cc2)CCN([C@@H](C)c2ccc(-c3cncc(Cl)c3)cc2)C(=O)O1 [EXAMPLE 54, (R)-6-allyl-3-((S)-1-(4-(5-chloropyridin-3-yl)phenyl)ethyl)-6-(4-fluorophenyl)-1,3-oxazinan-2-one] | 39.4 nM | 38.4 | 1 nM | < 100 nM | 97.1% | 400 nM
C[C@@H](c1ccc(-c2ncccn2)cc1)N1CC[C@](CCCO)(c2ccc(F)cc2)OC1=O [EXAMPLE 113, (R)-6-(4-fluorophenyl)-6-(3-hydroxypropyl)-3-((S)-1-(4-(pyrimidin-2-yl)phenyl)ethyl)-1,3-oxazinan-2-one] | 22.8 nM | 3.1 | 7.4 nM | < 100 nM | 92.4% | 2900 nM
Cc1cc(-c2ccc([C@H](C)N3CC[C@](CC(C)(C)C#N)(c4ccc(F)cc4)OC3=O)cc2)ccn1 [EXAMPLE 116, 3-((R)-6-(4-fluorophenyl)-3-((S)-1-(4-(2-methylpyridin-4-yl)phenyl)ethyl)-2-oxo-1,3-oxazinan-6-yl)-2,2-dimethylpropanenitrile] | 3.7 nM | 5.1 | 0.7 nM | < 100 nM | 99.6% | 5300 nM
Cc1nc(C)c(-c2ccc([C@H](C)N3CC[C@](CCCO)(c4ccc(F)cc4)OC3=O)cc2)s1 [EXAMPLE 83, (R)-3-((S)-1-(4-(2,4-dimethylthiazol-5-yl)phenyl)ethyl)-6-(4-fluorophenyl)-6-(3-hydroxypropyl)-1,3-oxazinan-2-one] | 8.8 nM | 8.9 | 1 nM | < 100 nM | 94.7% | 3900 nM
Cc1cc(-c2ccc([C@H](C)N3CC[C@](CC(C)(C)O)(c4ccccc4)OC3=O)cc2)cc(C)[n+]1[O-] [EXAMPLE 121, 4-(4-((S)-1-((S)-6-(2-hydroxy-2-methylpropyl)-2-oxo-6-phenyl-1,3-oxazinan-3-yl)ethyl)phenyl)-2,6-dimethylpyridine 1-oxide] | 7.5 nM | – | 2.3 nM | < 100 nM | 97.3% | 4800 nM
C[C@@H](c1ccc(-c2ccc(C(N)=O)cn2)cc1)N1CC[C@](CCCO)(c2ccccc2)OC1=O [EXAMPLE 140, 6-(4-((S)-1-((R)-6-(3-hydroxypropyl)-2-oxo-6-phenyl-1,3-oxazinan-3-yl)ethyl)phenyl)nicotinamide] | 6.8 nM | 6.4 | 1.1 nM | < 100 nM | 98.7% | 20600 nM

More lines, now with the values ahead:

IC50 (11β-HSD1 [1]) | Shift (11β-HSD1 [1]) | IC50 (11β-HSD1 [2]; [3]) | IC50 (11β-HSD1 [2]; [4]) | inhibition at 0.1 µM (11β-HSD1 [2]) | IC50 (CYP2C9) | SMILES
3.8 nM | 8.8 | 0.4 nM | < 100 nM | 99% | 4000 nM | COc1ccc(-c2ccc([C@H](C)N3CC[C@](CCCO)(c4ccc(F)cc4)OC3=O)cc2)cn1 [EXAMPLE 65, (R)-6-(4-fluorophenyl)-6-(3-hydroxypropyl)-3-((S)-1-(4-(6-methoxypyridin-3-yl)phenyl)ethyl)-1,3-oxazinan-2-one]
6.7 nM | 9.9 | 0.7 nM | < 100 nM | 101% | 3800 nM | COc1ccc(-c2ccc([C@H](C)N3CC[C@](CCCNS(C)(=O)=O)(c4ccc(F)cc4)OC3=O)cc2)cn1 [EXAMPLE 67, N-(3-((R)-6-(4-fluorophenyl)-3-((S)-1-(4-(6-methoxypyridin-3-yl)phenyl)ethyl)-2-oxo-1,3-oxazinan-6-yl)propyl)methanesulfonamide]
4.2 nM | – | 0.7 nM | < 100 nM | 100% | 1400 nM | C[C@@H](c1ccc(-c2ccc(C(F)(F)F)nc2)cc1)N1CC[C@](CCCO)(c2ccc(F)cc2)OC1=O [EXAMPLE 44, (R)-6-(4-fluorophenyl)-6-(3-hydroxypropyl)-3-((S)-1-(4-(6-(trifluoromethyl)pyridin-3-yl)phenyl)ethyl)-1,3-oxazinan-2-one]
6.1 nM | 2.5 | 2.5 nM | < 100 nM | 94.3% | 8500 nM | C[C@@H](c1ccc(-c2cccnc2)cc1)N1CC[C@](CCO)(c2ccc(F)cc2)OC1=O [EXAMPLE 37, (S)-6-(4-fluorophenyl)-6-(2-hydroxyethyl)-3-((S)-1-(4-(pyridin-3-yl)phenyl)ethyl)-1,3-oxazinan-2-one]
6.2 nM | 8.2 | 0.8 nM | < 100 nM | 99.6% | 4700 nM | COc1ccc(-c2ccc([C@H](C)N3CC[C@](CC(C)(C)O)(c4ccc(F)cc4)OC3=O)cc2)cn1 [EXAMPLE 64, (S)-6-(4-fluorophenyl)-6-(2-hydroxy-2-methylpropyl)-3-((S)-1-(4-(6-methoxypyridin-3-yl)phenyl)ethyl)-1,3-oxazinan-2-one]
18.5 nM | 14.6 | 1.3 nM | < 100 nM | 98.7% | 6600 nM | COc1cncc(-c2ccc([C@H](C)N3CC[C@](CCCO)(c4ccc(F)cc4)OC3=O)cc2)c1 [EXAMPLE 53, (R)-6-(4-fluorophenyl)-6-(3-hydroxypropyl)-3-((S)-1-(4-(5-methoxypyridin-3-yl)phenyl)ethyl)-1,3-oxazinan-2-one]
4.8 nM | 7.3 | 0.7 nM | < 100 nM | 97.4% | 1700 nM | C[C@@H](c1ccc(-c2cncc(F)c2)cc1)N1CC[C@](CCCO)(c2ccc(F)cc2)OC1=O [EXAMPLE 148, (R)-6-(4-fluorophenyl)-3-((S)-1-(4-(5-fluoropyridin-3-yl)phenyl)ethyl)-6-(3-hydroxypropyl)-1,3-oxazinan-2-one]
6.2 nM | 10.5 | 0.6 nM | < 100 nM | 98.9% | 13300 nM | C[C@@H](c1ccc(-c2ccccn2)cc1)N1CC[C@](CCCNS(C)(=O)=O)(c2ccccc2)OC1=O [EXAMPLE 89, N-(3-((R)-2-oxo-6-phenyl-3-((S)-1-(4-(pyridin-2-yl)phenyl)ethyl)-1,3-oxazinan-6-yl)propyl)methanesulfonamide]
17.3 nM | 4.1 | 4.3 nM | < 100 nM | 93.9% | 28300 nM | C[C@@H](c1ccc(-c2cncnc2)cc1)N1CC[C@](CCCO)(c2ccc(F)cc2)OC1=O [EXAMPLE 129, (R)-6-(4-fluorophenyl)-6-(3-hydroxypropyl)-3-((S)-1-(4-(pyrimidin-5-yl)phenyl)ethyl)-1,3-oxazinan-2-one]
